Measurements as given in BindingDB's records for doi:10.7270/Q2902274 (Burnham Center For Chemical Genomics, 2010).

Target: Eukaryotic translation initiation factor 4H (Homo sapiens, UniProt Q15056)
Assay: eIF4H inhibition in translation initiation, SAR follow-up (AID 435011)

## COc1cc([CH+][N-]NC(=O)c2ccc(O)cc2)ccc1OCC(=O)Nc1cccc([N+](=O)[O-])c1
  IC50: > 100 µM
